In US12448375B2, “Kinase inhibitors for the treatment of neurodegenerative diseases” (Ohio State Innovation Foundation, priority 2019, dated 2025):
Where two headings read alike, the source gives them in different places.

What was measured:
p38a = biological target: T1, p38a (Homo sapiens, UniProt Q16539); experiment: HotSpot Kinase Assay, P38a; format: biochemical; conditions: HotSpot radiometric assay, 33P-ATP
T1 construct: purchased Reaction Biology Corp
Description: (§1) The anti-JNK3 activity of compounds prepared as in the previous examples was evaluated using a Reaction Biology Corp. HotSpot Kinase Assay. Base reaction buffer was 20 mM HEPES (4-(2-hydroxyethyl)-1-piperazineethanesulfonic acid) at pH 7.5 with 10 mM MgCl2, 1 mM EGTA (ethylene glycol-bis(β-aminoethyl ether)-N,N,N′,N′-tetracetic acid), 0.02% Brij™ 35, 0.02 mg/mL BSA (bovine serum albumin), 0.1 mM Na3VO4, 2 mM DTT (dithiothreitol), and 1% DMSO. Required cofactors were added individually to each kinase reaction.
(§2) Activity against related enzymes JNK1 and P38a was further assessed using the same assay.

[1] = test system: c-jun phosphorylation in SH-SY5Y human neuroblastoma cell line; experiment: In Cell Western Assay, p-c-jun after TNFa; format: cell-based; conditions: SH-SY5Y cells, 25 ng/ml TNFa 1 hour, read-out: Phosphoryl. in SH-SY5Y
Description: SH-SY5Y human neuroblastoma cell line was utilized for the assay. […] Next day, cells were starved of serum for 2 hours by media replacement with serum free DMEM:F12. Cells were then pretreated with inhibitors in DMEM:F12 for 30 min, which was followed by the addition of 25 ng/ml of TNFa for 1 hour. At the end of incubation, cells were fixed with 3% paraformaldehyde for 20 min at room temperature. Following three washes with 0.1 M phosphate buffer (pH 7.0) with shaking during washes, cells were treated with Licor blocking buffer (1:1 dilution in PBS with 0.3% Triton X-100) for 1 hour on a shaker. […] Next day, cells were washed with PBS containing 0.3% Triton X-100 for 5 min each three times with shaking. […] Following three 5 min washes, cells were incubated for nuclei staining with Alexa 680 succinidimyl ester (Thermofisher cat #, A20008) at 1/40,000 dilution for 15 min with shaking and subsequent three 5 min washes. P-c-jun and nuclei signals were detected using Odyssey LiCor Infrared scanner. The p-c-jun signal of each well was normalized to the cell number using nuclei signal.

JNK3 = biological target: T2, JNK3 (Homo sapiens, UniProt P53779); experiment: HotSpot Kinase Assay (Reaction Biology Corp.), anti-JNK3 activity; format: biochemical; conditions: HotSpot radiometric assay, 33P-ATP
T2 construct: purchased Reaction Biology Corp
Description: as §1, §2

JNK1 = biological target: T3, JNK1 (Homo sapiens, UniProt P45983); experiment: HotSpot Kinase Assay, JNK1; format: biochemical; conditions: HotSpot radiometric assay, 33P-ATP
T3 construct: purchased Reaction Biology Corp
Description: as §1, §2

T1 sequence (Q16539 whole entry): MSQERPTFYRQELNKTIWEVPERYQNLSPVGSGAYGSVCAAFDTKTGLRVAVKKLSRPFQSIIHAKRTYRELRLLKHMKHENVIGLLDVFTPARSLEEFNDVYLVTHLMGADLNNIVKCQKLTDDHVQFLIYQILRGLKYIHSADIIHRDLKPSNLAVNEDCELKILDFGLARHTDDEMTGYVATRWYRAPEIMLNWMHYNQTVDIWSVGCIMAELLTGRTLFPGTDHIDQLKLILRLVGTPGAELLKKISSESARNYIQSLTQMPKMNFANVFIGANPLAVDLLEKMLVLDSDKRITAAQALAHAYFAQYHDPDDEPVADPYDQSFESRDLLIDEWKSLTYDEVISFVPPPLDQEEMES
T3 sequence (P45983 whole entry): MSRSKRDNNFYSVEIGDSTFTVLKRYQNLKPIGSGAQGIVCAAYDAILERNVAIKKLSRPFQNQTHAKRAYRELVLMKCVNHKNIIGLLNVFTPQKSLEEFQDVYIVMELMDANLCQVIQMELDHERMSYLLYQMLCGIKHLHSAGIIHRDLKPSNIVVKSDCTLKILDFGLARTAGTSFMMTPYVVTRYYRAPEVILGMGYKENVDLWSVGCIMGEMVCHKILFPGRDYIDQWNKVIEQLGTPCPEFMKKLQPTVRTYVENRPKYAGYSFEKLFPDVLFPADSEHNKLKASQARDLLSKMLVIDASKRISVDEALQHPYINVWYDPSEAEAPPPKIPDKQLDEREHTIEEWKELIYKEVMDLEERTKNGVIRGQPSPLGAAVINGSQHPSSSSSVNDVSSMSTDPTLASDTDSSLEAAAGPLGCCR
T2 sequence (P53779 whole entry): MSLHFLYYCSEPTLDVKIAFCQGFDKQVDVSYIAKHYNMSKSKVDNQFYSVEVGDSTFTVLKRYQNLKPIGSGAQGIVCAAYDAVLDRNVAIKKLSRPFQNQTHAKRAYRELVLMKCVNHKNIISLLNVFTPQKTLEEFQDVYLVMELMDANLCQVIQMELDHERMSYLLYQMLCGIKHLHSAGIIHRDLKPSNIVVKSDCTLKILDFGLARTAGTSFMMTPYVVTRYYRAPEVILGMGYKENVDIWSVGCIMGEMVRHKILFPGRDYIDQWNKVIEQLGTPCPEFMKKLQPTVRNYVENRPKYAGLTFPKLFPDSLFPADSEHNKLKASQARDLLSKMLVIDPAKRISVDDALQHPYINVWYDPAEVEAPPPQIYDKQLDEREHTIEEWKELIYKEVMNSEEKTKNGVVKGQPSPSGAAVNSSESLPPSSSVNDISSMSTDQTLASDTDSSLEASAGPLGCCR

SMILES	IC50 (p38a)	IC50 [1]	IC50 (JNK3)	IC50 (JNK1)	IC50 ([1]; printed as a numeric range)
[2H]C([2H])([2H])N1CC[C@H](NC(=O)c2cc(-n3ncc4cc(Nc5ccccc5Cl)c(F)cc43)cs2)C1 [Compound 36, (S)-4-(5-((2-chlorophenyl)amino)-6-fluoro-1H-indazol-1-yl)-N-(1-(methyl-d3)pyrrolidin-3-yl)thiophene-2-carboxamide]	200 to 1000 nM	< 200 nM	< 200 nM	200 to 1000 nM	
[2H]C([2H])([2H])N1CC[C@H](NC(=O)c2cc(-n3ncc4cc(Oc5ccccc5Cl)ccc43)cs2)C1 [Compound 9, (S)-4-(5-(2-chlorophenoxy)-1H-indazol-1-yl)-N-(1-(methyl-d3)pyrrolidin-3-yl)thiophene-2-carboxamide]	> 1000 nM	> 1000 nM	< 200 nM	> 1000 nM	
O=C(NC1COC1)c1cc(-n2ncc3cc(Oc4ccccc4Cl)ccc32)cs1 [Compound 11, 4-(5-(2-chlorophenoxy)-1H-indazol-1-yl)-N-(oxetan-3-yl)thiophene-2-carboxamide]	> 1000 nM		< 200 nM	> 1000 nM	
CC(C)NC(=O)c1cc(-n2ncc3cc(Nc4ccccc4Cl)c(F)cc32)cs1 [Compound 44, 4-(5-((2-chlorophenyl)amino)-6-fluoro-1H-indazol-1-yl)-N-isopropylthiophene-2-carboxamide]	< 200 nM		< 200 nM	< 200 nM	
CNC(=O)c1cc(-n2ncc3cc(Nc4ccccc4Cl)ncc32)cs1 [Compound 6, 4-(5-((2-chlorophenyl)amino)-1H-pyrazolo[3,4-c]pyridin-1-yl)-N-methylthiophene-2-carboxamide]	200 to 1000 nM		< 200 nM	> 1000 nM	10 to 100 nM
COCCNC(=O)c1cc(-n2ncc3cc(Oc4ccccc4Cl)ncc32)cs1 [Compound 14, 4-(5-(2-chlorophenoxy)-1H-pyrazolo[3,4-c]pyridin-1-yl)-N-(2-methoxyethyl)thiophene-2-carboxamide]	> 1000 nM		< 200 nM	> 1000 nM	
O=C(N[C@H]1CCOC1)c1cc(-n2ncc3cc(Nc4ccccc4Cl)c(F)cc32)cs1 [Compound 32, (S)-4-(5-((2-chlorophenyl)amino)-6-fluoro-1H-indazol-1-yl)-N-(tetrahydrofuran-3-yl)thiophene-2-carboxamide]	< 200 nM		< 200 nM	< 200 nM	
CC(C)N1CC[C@@H](NC(=O)c2cc(-n3ncc4cc(Nc5ccccc5Cl)ccc43)cs2)C1 [Compound 35, (R)-4-(5-((2-chlorophenyl)amino)-1H-indazol-1-yl)-N-(1-isopropylpyrrolidin-3-yl)thiophene-2-carboxamide]	200 to 1000 nM		< 200 nM	200 to 1000 nM	
O=C(NC1CN(C2CC2)C1)c1cc(-n2ncc3cc(Oc4ccccc4Cl)ccc32)cs1 [Compound 10, 4-(5-(2-chlorophenoxy)-1H-indazol-1-yl)-N-(1-cyclopropylazetidin-3-yl)thiophene-2-carboxamide]	200 to 1000 nM		< 200 nM	> 1000 nM	
CC(C)NC(=O)c1cc(-n2ncc3cc(Nc4ccccc4Cl)ncc32)cs1 [Compound 16, 4-(5-((2-chlorophenyl)amino)-1H-pyrazolo[3,4-c]pyridin-1-yl)-N-isopropylthiophene-2-carboxamide]	200 to 1000 nM		< 200 nM	200 to 1000 nM	
[2H]C([2H])([2H])N1CC[C@H](NC(=O)c2cc(-n3ncc4cc(Nc5ccccc5Cl)ccc43)cs2)C1 [Compound 30, (S)-4-(5-((2-chlorophenyl)amino)-1H-indazol-1-yl)-N-(1-(methyl-d3)pyrrolidin-3-yl)thiophene-2-carboxamide]	200 to 1000 nM	< 200 nM	< 200 nM	200 to 1000 nM	
CNC(=O)c1cc(-n2ncc3nc(Oc4ccccc4Cl)ccc32)cs1 [Compound 49, 4-(5-(2-chlorophenoxy)-1H-pyrazolo[4,3-b]pyridin-1-yl)-N-methylthiophene-2-carboxamide]	200 to 1000 nM		200 to 1000 nM	> 1000 nM	
COCC(COC)NC(=O)c1cc(-n2ncc3cc(Oc4ccccc4Cl)ncc32)cs1 [Compound 12, 4-(5-(2-chlorophenoxy)-1H-pyrazolo[3,4-c]pyridin-1-yl)-N-(1,3-dimethoxypropan-2-yl)thiophene-2-carboxamide]	> 1000 nM		200 to 1000 nM	> 1000 nM	
O=C(NC1CNC1)c1cc(-n2ncc3nc(Nc4ccccc4Cl)ncc32)cs1 [Compound 27, N-(azetidin-3-yl)-4-(5-((2-chlorophenyl)amino)-1H-pyrazolo[4,3-d]pyrimidin-1-yl)thiophene-2-carboxamide]	> 1000 nM		> 1000 nM	> 1000 nM	
O=C(NC1CC1)c1cc(-n2ncc3cc(Nc4ccccc4Cl)c(F)cc32)cs1 [Compound 31, 4-(5-((2-chlorophenyl)amino)-6-fluoro-1H-indazol-1-yl)-N-cyclopropylthiophene-2-carboxamide]	< 200 nM		< 200 nM	< 200 nM	

Other lines, results leading:

IC50 (p38a)	IC50 [1]	IC50 (JNK3)	IC50 (JNK1)	IC50 ([1]; printed as a numeric range)	SMILES
200 to 1000 nM	< 200 nM	< 200 nM	> 1000 nM		CNC(=O)c1cc(-n2ncc3nc(Nc4ccccc4Cl)ccc32)cs1 [Compound 50, 4-(5-((2-chlorophenyl)amino)-1H-pyrazolo[4,3-b]pyridin-1-yl)-N-methylthiophene-2-carboxamide]
200 to 1000 nM		< 200 nM	> 1000 nM		CNC(=O)c1cc(-n2ncc3cc(Nc4c(Cl)cccc4OC)cnc32)cs1 [Compound 109, 4-(5-((2-chloro-6-methoxyphenyl)amino)-1H-pyrazolo[3,4-b]pyridin-1-yl)-N-methylthiophene-2-carboxamide]
> 1000 nM		200 to 1000 nM	> 1000 nM		Cc1nc2c(cnn2-c2csc(C(=O)NC3(C)COC3)c2)cc1Nc1ccccc1Cl [Compound 79, 4-(5-((2-chlorophenyl)amino)-6-methyl-1H-pyrazolo[3,4-b]pyridin-1-yl)-N-(3-methyloxetan-3-yl)thiophene-2-carboxamide]
200 to 1000 nM		< 200 nM	> 1000 nM		CNC(=O)c1cc(-n2ncc3cc(Nc4ccccc4OC)c(F)cc32)cs1 [Compound 80, 4-(6-fluoro-5-((2-methoxyphenyl)amino)-1H-indazol-1-yl)-N-methylthiophene-2-carboxamide]
200 to 1000 nM		< 200 nM	200 to 1000 nM		CNC(=O)c1cc(-n2ncc3cc(Oc4ccccc4Cl)cnc32)cs1 [Compound 64, 4-(5-(2-chlorophenoxy)-1H-pyrazolo[3,4-b]pyridin-1-yl)-N-methylthiophene-2-carboxamide]
200 to 1000 nM		< 200 nM	200 to 1000 nM		CC1COC(NC(=O)c2cc(-n3ncc4cc(Nc5ccccc5Cl)cnc43)cs2)=N1 (centres unmarked) [Compound 69, 4-(5-((2-chlorophenyl)amino)-1H-pyrazolo[3,4-b]pyridin-1-yl)-N-(4-methyl-4,5-dihydrooxazol-2-yl)thiophene-2-carboxamide]
200 to 1000 nM		< 200 nM	> 1000 nM		CNC(=O)c1cc(-n2ncc3cc(Nc4c(F)cccc4Cl)c(F)cc32)cs1 [Compound 111, 4-(5-((2-chloro-6-fluorophenyl)amino)-6-fluoro-1H-indazol-1-yl)-N-methylthiophene-2-carboxamide]
< 200 nM		< 200 nM	> 1000 nM		COc1ccccc1Nc1cc2cnn(-c3csc(C(=O)NC4COC4)c3)c2cc1F [Compound 77, 4-(6-fluoro-5-((2-methoxyphenyl)amino)-1H-indazol-1-yl)-N-(oxetan-3-yl)thiophene-2-carboxamide]
200 to 1000 nM		< 200 nM	200 to 1000 nM		CNC(=O)c1cc(-n2ncc3cc(Nc4c(F)cccc4Cl)c(COC)cc32)cs1 [Compound 152]
200 to 1000 nM		< 200 nM	200 to 1000 nM		Cc1nc2c(cnn2-c2csc(C(=O)NC3COC3)c2)cc1Nc1cccc(F)c1Cl [Compound 100, 4-(5-((2-chloro-3-fluorophenyl)amino)-6-methyl-1H-pyrazolo[3,4-b]pyridin-1-yl)-N-(oxetan-3-yl)thiophene-2-carboxamide]
200 to 1000 nM		< 200 nM	> 1000 nM		O=C(NC1COC1)c1cc(-n2ncc3nc(Nc4ccccc4Cl)ccc32)cs1 [Compound 52, 4-(5-((2-chlorophenyl)amino)-1H-pyrazolo[4,3-b]pyridin-1-yl)-N-(oxetan-3-yl)thiophene-2-carboxamide]
> 1000 nM		< 200 nM	> 1000 nM		O=C(NC1COC1)c1cc(-n2ncc3cc(Oc4ccccc4Cl)cnc32)cs1 [Compound 70, 4-(5-(2-chlorophenoxy)-1H-pyrazolo[3,4-b]pyridin-1-yl)-N-(oxetan-3-yl)thiophene-2-carboxamide]
